Data published in patent US10975099B2, “Thiophene compounds for long-acting injectable compositions and related methods” (Alkermes Pharma Ireland Limited, priority 2018, dated 2021).
Values joined by “and” are separate entries in the source; they are usually repeats but may differ in a detail not shown here. Equal values may be shown once.

Experiments:
[1] = Pharmacokinetic evaluation of the release of naltrexone from Compound 4 in rats following a single intramuscular injection; format: in vivo, Sprague-Dawley rats; details: for plasma concentrations of parent Compound 4 and the resultant intermediate, in words: over 84 days after single IM dose of Compound 4, limit of quantitation 0.5 ng/mL
Description: Five male Sprague-Dawley rats were allowed to acclimate to the test facility for at least 3 days prior to study start. For dose administration of Compound 4, the rats were lightly anesthetized with isofluorane, the hind leg shaved and dosed intramuscularly with the formulation using a 20 G needle. […] Serial whole blood samples were collected via sublingual route (˜150 μL) at 1, 7, and 24 hours post dose, and at 2, 4, 7, 10, 14, 21, 24, 28, 35, 42, 49, 56, 63, 70, 77, and 84 days post dose.
Blood samples were placed into K2EDTA blood collection tubes. After collection, blood samples were maintained chilled (on wet ice) and centrifuged (11,500 rpm for 2 minutes at 5 degrees C.) within 30 minutes to obtain plasma. Plasma was transferred into a single vial, 1.5 mL screw cap micro-centrifuge tube with inserts and stored at −80 degrees C. until analysis.
The formulation dosed was a crystalline suspension of Compound 4 (48.3 milligrams of Compound 4 dosed per animal), wherein the crystalline test article was characterized with a particle size distribution of Dv10=4.0 μm, Dv50=6.4 μm, and Dv90=9.6 μm (as measured via laser diffraction). The formulation was prepared the day before dosing. Details of the formulation dosed are described in Table D below.
Results of the above intramuscular rat study of Compound 4 are shown in Tables E and F. In particular, Table E reports the average blood plasma levels of naltrexone in rat (n=5) over 84 days following intramuscular administration.

[2] = Whole blood stability assay; format: in vitro ADME; details: pooled fresh human whole blood, 37 degrees C., prodrug 50 nM; read-out: t1/2 at 37 degrees C. in human whole blood
Description: Naltrexone prodrug stability was assessed using freshly collected whole blood (within 24-hr collection) from pooled human (n=3) donors. The incubation mixtures were prepared by spiking the prodrugs into pre-warmed (37 degrees C.) fresh whole blood to a final concentration of 50 nM. After gentle mixing, aliquots of incubation mixtures were immediately transferred into four different 96-deep well plates. One plate was used for each time point. The plates were incubated at 37 degrees C. at a shaking speed of 100 rpm. At time points 15, 30, 60 and 120 minutes, the reaction was quenched by addition of a mixture of water and acetonitrile containing the internal standard (naltrexone-D3). Time point 0 minutes was prepared separately by spiking the prodrugs into a quenched whole blood to obtain a final concentration of 50 nM. All samples were vortexed at a low speed for 15 min and centrifuged at 3900 rpm for 15 min. Supernatants were transferred into 96-well plates for LC-MS/MS analysis to monitor the depletion of the prodrugs and the formation of naltrexone.
The amount of remaining prodrug and released naltrexone for each sample was quantitated against the calibration curves prepared with the whole blood. The human whole blood was purchased from BioreclamationIVT (Westbury, N.Y., USA). Naltrexone-D3 was purchased from Cerilliant® (Round Rock, Tex., USA). […] Where multiple runs have been completed, average values are reported.

## O=C(Cc1ccc(CC(=O)Oc2ccc3c4c2O[C@H]2C(=O)CC[C@@]5(O)[C@@H](C3)N(CC3CC3)CC[C@]425)s1)Oc1ccc2c3c1O[C@H]1C(=O)CC[C@@]4(O)[C@@H](C2)N(CC2CC2)CC[C@]314 [Compound 4, bis((4R,4aS,7aR,12bS)-3-(cyclopropylmethyl)-4a-hydroxy-7-oxo-2,3,4,4a,5,6,7,7a-octahydro-1H-4,12-methanobenzofuro[3,2-e]isoquinolin-9-yl) 2,2′-(thiophene-2,5-diyl)diacetate]
[1]; male, Sprague-Dawley, rat, plasma, intramuscular, 48.3 mg per animal, rat plasma, individual animals Rat 1-5, day 1 after single IM dose of Compound 4, read-out: Compound 4 conc.
  concentration at 1 day: < 0.5 ng/mL
[1]; male, Sprague-Dawley, rat, plasma, intramuscular, 48.3 mg per animal, rat plasma, individual animals Rat 1-5, day 49 after single IM dose of Compound 4, read-out: Compound 4 conc.
  concentration at 49 day: < 0.5 ng/mL
[1]; male, Sprague-Dawley, rat, plasma, intramuscular, 48.3 mg per animal, rat plasma, individual animals Rat 1-5, day 56 after single IM dose of Compound 4, read-out: Compound 4 conc.
  concentration at 56 day: < 0.5 ng/mL
[1]; male, Sprague-Dawley, rat, plasma, intramuscular, 48.3 mg per animal, rat plasma, individual animals Rat 1-5, day 63 after single IM dose of Compound 4, read-out: Compound 4 conc.
  concentration at 63 day: < 0.5 ng/mL
[1]; male, Sprague-Dawley, rat, plasma, intramuscular, 48.3 mg per animal, rat plasma, individual animals Rat 1-5, day 70 after single IM dose of Compound 4, read-out: Compound 4 conc.
  concentration at 70 day: < 0.5 ng/mL
[1]; male, Sprague-Dawley, rat, plasma, intramuscular, 48.3 mg per animal, rat plasma, individual animals Rat 1-5, day 77 after single IM dose of Compound 4, read-out: Compound 4 conc.
  concentration at 77 day: < 0.5 ng/mL
[1]; male, Sprague-Dawley, rat, plasma, intramuscular, 48.3 mg per animal, rat plasma, individual animals Rat 1-5, day 84 after single IM dose of Compound 4, read-out: Compound 4 conc.
  concentration at 84 day: < 0.5 ng/mL
[1]; male, Sprague-Dawley, rat, plasma, intramuscular, 48.3 mg/animal, rat plasma, individual animals Rat 1-5, day 2 after single IM dose of Compound 4, read-out: Compound 4 conc.
  concentration at 2 day: < 0.5 ng/mL
[1]; male, Sprague-Dawley, rat, plasma, intramuscular, 48.3 mg/animal, rat plasma, individual animals Rat 1-5, day 4 after single IM dose of Compound 4, read-out: Compound 4 conc.
  concentration at 4 day: < 0.5 ng/mL
[1]; male, Sprague-Dawley, rat, plasma, intramuscular, 48.3 mg/animal, rat plasma, individual animals Rat 1-5, day 7 after single IM dose of Compound 4, read-out: Compound 4 conc.
  concentration at 7 day: < 0.5 ng/mL
[1]; male, Sprague-Dawley, rat, plasma, intramuscular, 48.3 mg/animal, rat plasma, individual animals Rat 1-5, day 10 after single IM dose of Compound 4, read-out: Compound 4 conc.
  concentration at 10 day: < 0.5 ng/mL
[1]; male, Sprague-Dawley, rat, plasma, intramuscular, 48.3 mg/animal, rat plasma, individual animals Rat 1-5, day 14 after single IM dose of Compound 4, read-out: Compound 4 conc.
  concentration at 14 day: < 0.5 ng/mL
[1]; male, Sprague-Dawley, rat, plasma, intramuscular, 48.3 mg/animal, rat plasma, individual animals Rat 1-5, day 21 after single IM dose of Compound 4, read-out: Compound 4 conc.
  concentration at 21 day: < 0.5 ng/mL
[1]; male, Sprague-Dawley, rat, plasma, intramuscular, 48.3 mg/animal, rat plasma, individual animals Rat 1-5, day 24 after single IM dose of Compound 4, read-out: Compound 4 conc.
  concentration at 24 day: < 0.5 ng/mL
[1]; male, Sprague-Dawley, rat, plasma, intramuscular, 48.3 mg/animal, rat plasma, individual animals Rat 1-5, day 28 after single IM dose of Compound 4, read-out: Compound 4 conc.
  concentration at 28 day: < 0.5 ng/mL
[1]; male, Sprague-Dawley, rat, plasma, intramuscular, 48.3 mg/animal, rat plasma, individual animals Rat 1-5, day 35 after single IM dose of Compound 4, read-out: Compound 4 conc.
  concentration at 35 day: < 0.5 ng/mL
[1]; male, Sprague-Dawley, rat, plasma, intramuscular, 48.3 mg/animal, rat plasma, individual animals Rat 1-5, day 42 after single IM dose of Compound 4, read-out: Compound 4 conc.
  concentration at 42 day: < 0.5 ng/mL
[1]; rat plasma, average, day 84 after single IM dose of Compound 4 crystalline suspension (48.3 mg/animal)
  Naltrexone conc.: BLQ* (BLQ (Below Limit of Quantitation) means <0.5 ng/mL)
[1]; rat plasma, individual animals Rat 1-5, day 0.04 (1 hr) after single IM dose of Compound 4
  Compound 4 conc.: <0.5 ng/mL (4×) and 2.11 ng/mL
[1]; rat plasma, individual animals Rat 1-5, day 0.3 (7 hr) after single IM dose of Compound 4
  Compound 4 conc.: 1.22 ng/mL and <0.5 ng/mL (3×) and 1.05 ng/mL
[1]; rat plasma, individual animals Rat 1-5, day 1 after single IM dose of Compound 4
  Compound 4 conc.: <0.5 ng/mL (3×) and 0.501 ng/mL
[1]; rat plasma, individual animals Rat 1-5, day 2 after single IM dose of Compound 4
  Compound 4 conc.: <0.5 ng/mL
[1]; rat plasma, individual animals Rat 1-5, day 4 after single IM dose of Compound 4
  Compound 4 conc.: <0.5 ng/mL
[1]; rat plasma, individual animals Rat 1-5, day 7 after single IM dose of Compound 4
  Compound 4 conc.: <0.5 ng/mL
[1]; rat plasma, individual animals Rat 1-5, day 10 after single IM dose of Compound 4
  Compound 4 conc.: <0.5 ng/mL
[1]; rat plasma, individual animals Rat 1-5, day 14 after single IM dose of Compound 4
  Compound 4 conc.: <0.5 ng/mL
[1]; rat plasma, individual animals Rat 1-5, day 21 after single IM dose of Compound 4
  Compound 4 conc.: <0.5 ng/mL
[1]; rat plasma, individual animals Rat 1-5, day 24 after single IM dose of Compound 4
  Compound 4 conc.: <0.5 ng/mL
[1]; rat plasma, individual animals Rat 1-5, day 28 after single IM dose of Compound 4
  Compound 4 conc.: <0.5 ng/mL
[1]; rat plasma, individual animals Rat 1-5, day 35 after single IM dose of Compound 4
  Compound 4 conc.: <0.5 ng/mL
[1]; rat plasma, individual animals Rat 1-5, day 42 after single IM dose of Compound 4
  Compound 4 conc.: <0.5 ng/mL
[1]; rat plasma, individual animals Rat 1-5, day 49 after single IM dose of Compound 4
  Compound 4 conc.: <0.5 ng/mL
[1]; rat plasma, individual animals Rat 1-5, day 56 after single IM dose of Compound 4
  Compound 4 conc.: <0.5 ng/mL
[1]; rat plasma, individual animals Rat 1-5, day 63 after single IM dose of Compound 4
  Compound 4 conc.: <0.5 ng/mL
[1]; rat plasma, individual animals Rat 1-5, day 70 after single IM dose of Compound 4
  Compound 4 conc.: <0.5 ng/mL
[1]; rat plasma, individual animals Rat 1-5, day 77 after single IM dose of Compound 4
  Compound 4 conc.: <0.5 ng/mL
[1]; rat plasma, individual animals Rat 1-5, day 84 after single IM dose of Compound 4
  Compound 4 conc.: <0.5 ng/mL
[1]; rat
  plasma concentrations of parent Compound 4 and the resultant intermediate, in words: generally low to not measurable
[2]
  half-life at 50 nM: 4.19 min

## O=C(CCc1ccc(CCC(=O)Oc2ccc3c4c2O[C@H]2C(=O)CC[C@@]5(O)[C@@H](C3)N(CC3CC3)CC[C@]425)s1)Oc1ccc2c3c1O[C@H]1C(=O)CC[C@@]4(O)[C@@H](C2)N(CC2CC2)CC[C@]314 [Compound 1, bis((4R,4aS,7aR,12bS)-3-(cyclopropylmethyl)-4a-hydroxy-7-oxo-2,3,4,4a,5,6,7,7a-octahydro-1H-4,12-methanobenzofuro[3,2-e]isoquinolin-9-yl) 3,3′-(thiophene-2,5-diyl)dipropionate]
[2]
  half-life at 50 nM: 7.2 min

## O=C(Cc1sc(CC(=O)Oc2ccc3c4c2O[C@H]2C(=O)CC[C@@]5(O)[C@@H](C3)N(CC3CC3)CC[C@]425)c2ccccc12)Oc1ccc2c3c1O[C@H]1C(=O)CC[C@@]4(O)[C@@H](C2)N(CC2CC2)CC[C@]314 [Compound 3, bis((4R,4aS,7aR,12bS)-3-(cyclopropylmethyl)-4a-hydroxy-7-oxo-2,3,4,4a,5,6,7,7a-octahydro-1H-4,12-methanobenzofuro[3,2-e]isoquinolin-9-yl) 2,2′-(benzo[c]thiophene-1,3-diyl)diacetate]
[2]
  half-life at 50 nM: 41.2 min

## O=C(Oc1ccc2c3c1O[C@H]1C(=O)CC[C@@]4(O)[C@@H](C2)N(CC2CC2)CC[C@]314)c1ccc(C(=O)Oc2ccc3c4c2O[C@H]2C(=O)CC[C@@]5(O)[C@@H](C3)N(CC3CC3)CC[C@]425)cc1 [Reference Compound A, NTX-3-terephthaloyl-NTX, reference compound]
[2]
  half-life at 50 nM: 54.7 min

## O=C(Cc1cscc1CC(=O)Oc1ccc2c3c1O[C@H]1C(=O)CC[C@@]4(O)[C@@H](C2)N(CC2CC2)CC[C@]314)Oc1ccc2c3c1O[C@H]1C(=O)CC[C@@]4(O)[C@@H](C2)N(CC2CC2)CC[C@]314 [Compound 2, bis((4R,4aS,7aR,12bS)-3-(cyclopropylmethyl)-4a-hydroxy-7-oxo-2,3,4,4a,5,6,7,7a-octahydro-1H-4,12-methanobenzofuro[3,2-e]isoquinolin-9-yl) 2,2′-(thiophene-3,4-diyl)diacetate]
[2]
  half-life at 50 nM: < 5 min

## O=C(O)Cc1ccc(CC(=O)Oc2ccc3c4c2O[C@H]2C(=O)CC[C@@]5(O)[C@@H](C3)N(CC3CC3)CC[C@]425)s1 [Compound 4i, 2-(5-(2-(((4R,4aS,7aR,12bS)-3-(cyclopropylmethyl)-4a-hydroxy-7-oxo-2,3,4,4a,5,6,7,7a-octahydro-1H-4,12-methanobenzofuro[3,2-e]isoquinolin-9-yl)oxy)-2-oxoethyl)thiophen-2-yl)acetic acid]
[1]; rat
  plasma concentrations of parent Compound 4 and the resultant intermediate, in words: generally low to not measurable
